Test results: patent publication US9115122B2, “Non-ATP dependent inhibitors of extracellular signal-regulated kinase (ERK)” (UNIVERSITY OF MARYLAND, BALTIMORE, priority 2012, dated 2015)

How the values were obtained:
[1] = tested on: A375 melanoma cells; test: Cell proliferation, fluorescent Cell Titer Blue Assay (Example 1); type: cell-based; conditions: Homo sapiens, A-375; 48 hours
Description: (§1) FIG. 5. Dose dependent inhibition of cancer cell proliferation in vitro by SF-3-026 and analogs. A375 (closes circles), RPM17951 (closed squares), HeLa (open circles), or Jurkat (open squares) cells were treated for 48 hours with indicated concentration of (a) SF-3-026, (b) SF-2-027, (c) SF-2-029, or (d) SF-2-030 and cell proliferation was assessed by the fluorescent Cell Titer Blue Assay. The data were reproduced in 3 separate experiments.
(§2) Cells were seeded at 25,000 cells/well in 96-well plate and cultured overnight. Cells were treated for 24 hours with various concentrations of compounds and cell viability or caspase 3/7 activity were measured according to manufacturer's instructions using the fluorescent Cell Titer Blue Assay (Promega) or luminescent Caspase 3/7 Glo Assay (Promega).
(§3) It was next determined whether inhibition of AP-1 proteins by SF-3-026 and analogs affected the proliferation of cancer cells driven by mutations that constitutively activate the ERK1/2 pathway. For these experiments, A375 and RPMI7951 melanoma cells, which have a valine to glutamate mutation on residue 600 in BRaf that causes constitutive ERK1/2 activation, were chosen. Moreover, RPMI7951 cells are resistant to clinically used BRaf inhibitors due to overexpression of MAP3K8 (the gene encoding COT/Tp12) that re-activates ERK1/2 signaling. Both melanoma cells lines were treated with varying doses of SF-3-026 or analogs and cell viability was compared to HeLa cervical carcinoma and Jurkat T-cell leukemia cells, which are p53 defective but contain no known activating mutations in the ERK1/2 pathway.

[2] = tested on: HeLa cervical carcinoma cells; test: as above; type: cell-based; conditions: Homo sapiens, 48 hours
Description: as §1, §2, §3

[3] = tested on: Jurkat T-cell leukemia cells; test: as above; type: cell-based; conditions: Homo sapiens, 48 hours
Description: as §1, §2, §3

[4] = tested on: RPMI7951 melanoma cells; test: as above; type: cell-based; conditions: Homo sapiens, RPMI-7951; 48 hours
Description: as §1, §2, §3

[5] = target: ERK2 wild type (WT) (Rattus norvegicus (Rat), UniProt P63086); test: Fluorescence quenching (FQ) binding affinity; conditions: 1 nM to 20 μM test compound
[6] = target: ERK2 L114A (Rattus norvegicus (Rat), UniProt P63086, L114A); test: Fluorescence quenching (FQ) binding affinity; conditions: read-out: KD L114A (Site 2)
[7] = target: ERK2 Y191A (Rattus norvegicus (Rat), UniProt P63086, Y191A); test: Fluorescence quenching (FQ) binding affinity; conditions: read-out: KD Y191A (Site 2)
[8] = target: ERK2 L232A (Rattus norvegicus (Rat), UniProt P63086, L232A); test: Fluorescence quenching (FQ) binding affinity; conditions: read-out: KD L232A (Site 5)
[9] = tested on: ERK2 vs p38α MAP kinase; test: Selectivity for ERK2 compared to p38α MAP kinase; type: binding
[10] = tested on: MEK1-induced AP-1 promoter activity; test: AP-1 promoter luciferase assay, HeLa cells expressing active MEK1 mutant; type: cell-based; conditions: Homo sapiens, 4 hours, read-out: IC50 inhibition of MEK1-induced AP-1 promoter activity
Description: FIG. 4. Compound SF-3-026 and analogs inhibit SRE and AP-1 transcription factor function. (a) HeLa cells were transfected with constructs containing SRE or AP-1 promoters driving luciferase expression and then stimulated with EGF in the presence or absence of SF-3-026 for 4 hours followed by measurements of luciferase activity. Cells treated with U0126 were used as a positive inhibitor control. (b and c) HeLa cells were prepared and treated as in (a) with the indicated concentrations of SF-3-026 or analogs for 4 hours followed by the measurement of luciferase activity regulated by the SRE (b) or AP-1 (c) promoters. Data in (b and c) were normalized to EGF-only treatment and represent the mean and standard deviation from three independent experiments. (d) Compound SF-3-026 and analogs inhibit MEK1-induced AP-1 transcription factor function. HeLa cells were transfected with the AP-1 promoter construct and a constitutively active MEK1 mutant in the presence (10 μM) or absence of the MEK1/2 inhibitor (U0126) or an ATP-competitive ERK inhibitor (ERKi) for 4 hours followed by measurements of luciferase activity. (e) Cells expressing the AP-1 promoter and an active MEK-1 construct were treated with the indicated concentrations of SF-3-026 or analogs for 4 hours followed by the measurement of luciferase activity. Data in (e) were normalized to active MEK1-only treatment and represent the mean and standard deviation from three independent experiments.
HeLa cells were seeded in 24-well plates (40,000 cells/well) and incubated 18 hours to achieve ˜60-70% confluent. Cells were transfected with activator protein-1 (pAP1(PMA)-TA-Luc; Clontech) or the serum response element (pGL4.33-SRE; Promega) luciferase reporter plasmids (250 ng/well) using Lipofectamine™ (Invitrogen). After 16 hours, cells were pre-treated with varying amounts of compounds as indicated for 20 minutes, followed by stimulation with EGF (25 ng/mL) for 4.5 hr. In some experiments, cells transfected with the pAP1(PMA)-TA-Luc promoter and a constitutively active MEK1 mutant cDNA were treated with varying amounts of compounds during the last 4 hours of incubation. The luciferase activity in the cell extracts was determined with a Dual Luciferase Assay System (Promega) according to the manufacturer's instructions. Luciferase activities were monitored with a Lumat LB 9507 luminometer (Berthold Technology) and data were normalized to the amount of protein in each sample. […]

Chain of ERK2 wild type (WT) (P63086 whole entry): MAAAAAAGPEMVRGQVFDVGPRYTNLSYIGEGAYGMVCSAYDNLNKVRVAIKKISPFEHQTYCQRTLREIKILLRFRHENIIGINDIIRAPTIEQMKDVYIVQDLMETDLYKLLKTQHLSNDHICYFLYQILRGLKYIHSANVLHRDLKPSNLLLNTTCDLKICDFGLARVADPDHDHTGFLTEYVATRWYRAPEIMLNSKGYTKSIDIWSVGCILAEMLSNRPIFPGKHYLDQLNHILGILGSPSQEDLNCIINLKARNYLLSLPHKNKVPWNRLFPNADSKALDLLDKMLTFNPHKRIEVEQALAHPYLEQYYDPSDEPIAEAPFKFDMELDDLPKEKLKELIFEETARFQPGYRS
Chain of ERK2 L114A (P63086 whole entry L114A): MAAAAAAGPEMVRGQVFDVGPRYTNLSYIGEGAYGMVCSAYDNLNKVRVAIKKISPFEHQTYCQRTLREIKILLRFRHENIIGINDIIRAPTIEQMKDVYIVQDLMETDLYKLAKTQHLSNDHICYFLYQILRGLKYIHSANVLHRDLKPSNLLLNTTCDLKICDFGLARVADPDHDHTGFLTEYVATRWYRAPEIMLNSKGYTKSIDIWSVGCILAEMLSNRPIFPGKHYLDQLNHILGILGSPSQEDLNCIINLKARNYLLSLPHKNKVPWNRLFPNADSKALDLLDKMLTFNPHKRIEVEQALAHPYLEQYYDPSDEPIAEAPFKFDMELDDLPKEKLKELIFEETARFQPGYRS
Chain of ERK2 L232A (P63086 whole entry L232A): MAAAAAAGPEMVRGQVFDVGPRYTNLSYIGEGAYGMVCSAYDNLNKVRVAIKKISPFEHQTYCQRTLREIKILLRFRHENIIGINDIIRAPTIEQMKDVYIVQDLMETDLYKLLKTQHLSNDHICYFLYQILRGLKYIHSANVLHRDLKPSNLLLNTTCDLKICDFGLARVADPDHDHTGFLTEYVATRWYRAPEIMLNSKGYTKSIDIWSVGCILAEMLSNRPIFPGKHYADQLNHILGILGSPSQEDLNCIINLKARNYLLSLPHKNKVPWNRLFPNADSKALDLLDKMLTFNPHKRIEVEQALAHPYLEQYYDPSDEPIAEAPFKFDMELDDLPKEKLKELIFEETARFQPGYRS
Chain of ERK2 Y191A (P63086 whole entry Y191A): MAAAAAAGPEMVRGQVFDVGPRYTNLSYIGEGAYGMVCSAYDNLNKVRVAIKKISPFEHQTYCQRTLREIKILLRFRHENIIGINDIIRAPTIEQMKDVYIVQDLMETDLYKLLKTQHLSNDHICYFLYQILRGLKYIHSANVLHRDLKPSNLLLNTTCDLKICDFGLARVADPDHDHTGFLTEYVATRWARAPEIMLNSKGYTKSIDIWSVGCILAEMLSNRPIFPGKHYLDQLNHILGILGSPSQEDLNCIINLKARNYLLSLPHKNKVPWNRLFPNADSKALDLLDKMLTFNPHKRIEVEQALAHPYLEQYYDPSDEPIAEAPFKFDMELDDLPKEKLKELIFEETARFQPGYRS

O=S1(=O)C=CC(OS(=O)(=O)c2ccccc2)C1 (stereo not shown) [SF-3-026]
GI50 [1]: 7.8 µM
GI50 [2]: 32 µM
GI50 [3]: > 50 µM
GI50 [4]: 5.1 µM
Kd [5]: 0.13 ± 0.02 µM
Kd [6]: 0.027 ± 0.01 µM
Kd [7]: 0.13 µM
Kd [8]: 0.13 µM
selectivity for ERK2 as compared to p38α MAP kinase [9]: ~150 fold
IC50 [10]: ~40 µM
